Source: patent US20210395250A1, “NOVEL CRYSTAL OF (3S)-3-[2-(6-AMINO-2-FLUOROPYRIDIN-3-YL)-4-FLUORO-1H-IMIDAZOL-5-YL]-7-[5-CHLORO-2-(1H-TETRAZOL-1-YL)PHENYL]-2,3-DIHYDROINDOLIZIN-5(1H)-ONE” (priority 2018, published 2021)
Converted amounts (≈) assume the structure as drawn. Like-named read-outs stand apart in the source and are kept apart here.

Tests used:
[1] = Evaluation of hygroscopicity: isothermal absorption curve measurement (DVS); assay type: physicochemical
Description: Physical Chemical Example 1: Evaluation of Hygroscopicity
An isothermal absorption curve measurement (DVS) was carried out under the following conditions.
Device: DVS Intrinsic, manufactured by SMS
Measurement temperature: 25° C.
Measurement range: relative humidity of 0 to 95%
Interval of measurement: relative humidity of 5%

[2] = Evaluation of solubility in JP 1st fluid and artificial intestinal juice (FaSSIF), HPLC; assay type: physicochemical; details: after 24 hours; for solubility at 24 h: 37 °C, thermodynamic from solid
Description: The measurement of solubility was carried out under the following conditions.
About 3 mg of each of the compounds of the present invention was weighed in a test tube, then a stirrer and 5 mL of each of an artificial intestinal juice (FaSSIF; Reference Document 1: Pharmaceutical Research, vol. 20, pp. 1674-1680, 2003; Reference Document 2: Biological & Pharmaceutical Bulletin, vol. 34, pp. 401-407, 2011) and JP 1st fluid which had been warmed to 37° C. were added to the test tube, and then the test tube was sealed hermetically. The test tube was installed in a solubility test device (Gilson, Quad-Z 215), and the solution was stirred at 37° C. and 700 rpm. After 0.25, 0.5, 1, 3, 6 and 24 hours, an aliquot of the solution in the test tube was collected. The collected solution was filtrated through a filter, and a filtrate was diluted two-folds with acetonitrile. A diluted solution of the artificial intestinal juice was centrifuged at 3000 rpm for 5 minutes, and a supernatant was used as a sample solution. A diluted solution of the JP 1st fluid was used as is as a sample solution. Solubility was calculated by a high-performance liquid chromatography method.
Column: Waters Xbridge ShieldRP18 (4.6 mm (inner diameter)×50 mm, 3.5 μm) Column temperature: 40° C. Component of mobile phase: 20 mM potassium dihydrogen phosphate (pH 3.0)/acetonitrile (0 minute: 70/30, 5 minutes: 25/75)
Flow rate: 1.0 mL/min Sample rack temperature: 15° C. Sample injection amount: 10 μL Measurement time: 5 minutes Retention time: 2.6 minutes

[3] = Evaluation of oral absorption after oral administration of suspensions to monkeys; details: for oral absorption rate (%): cynomolgus monkeys/male, fasted, 1 mg/kg oral suspension in 0.5% aqueous methyl cellulose, oral AUC / intravenous AUC (1 mg/kg) x 100
Description: The measurement of oral absorption was carried out under the following conditions.
Each of the suspensions was prepared with a 0.5% aqueous methyl cellulose solution at a concentration of 0.33 mg/mL (in terms of free base content). Each of the suspensions was administered to monkeys (cynomolgus monkeys/male), which had been fasted since the day before, in the stomach thereof forcibly with a sonde. The amount of administration was adjusted depending on the body weight of each of the monkeys so that the dosage amount became 1 mg/kg.
After the administration of the suspensions (liquid pharmaceuticals), at the timing of 0.25, 0.5, 1, 2, 4, 7 and 24 hours after the administration, blood (0.5 mL) was collected from the cephalic vein with a heparin-added syringe. The collected blood was centrifuged at 10000 G for 5 minutes to separate plasma from the blood. In the evaluation of the oral absorption of the test compounds, data obtained when the test compounds were administered intravenously at the same dose amounts (1 mg/kg) were employed. The oral absorption rate (%) was calculated by dividing an AUC (area under the blood concentration-time curve) value obtained in the oral administration by an AUC value obtained in the intravenous administration and then multiplying the resultant value by 100.
The whole volume of the solution was added to Oasis HLB μElution Plate through which acetonitrile (200 μL) and purified water (200 μL) had been passed, and was then sucked under reduced pressure. Purified water (200 μL) was added to the solution, and the resultant solution was washed by sucking under reduced pressure. Acetonitrile (200 μL) was added to the solution, the resultant solution was sucked under reduced pressure, and an eluate was collected in a 96-well plate. The eluate (10 μL) was added to a 0.1% aqueous formic acid solution/acetonitrile (2/1) solution (290 μL), and the resultant solution was stirred and was then analyzed by LC/MS/MS.
The analysis by LC/MS/MS was carried out under the following conditions.
Measurement device: API-5000 (manufactured by Applied Biosystems/MDS SCIEX) Analysis column: Cadenza CD-C18 (2.0 mm I.D.×100 mm, 3 μm) Flow rate: 0.4 mL/min. Components of mobile phase: a 0.1% aqueous formic acid solution/acetonitrile (0 minute: 65/35, 4.0 minutes: 65/35, 4.1 minutes: 10/90, 5.0 minutes: 10/90, 5.1 minutes: 65/35, 7.0 minutes: 65/35) Scan type: MRM (Multiple Reaction Monitoring)

[4] = artificial intestinal juice (FaSSIF), 37° C., 700 rpm
[5] = artificial intestinal juice (FaSSIF), 37° C.

Row | Compound | hygroscopicity (in words) [1] | Solubility, JP 1st fluid ([2]; JP 1st fluid, 37° C., 700 rpm) [μg/m] | Solubility, Artificial intestinal juice [2, 4] [μg/m] | solubility in the artificial intestinal juice [2, 5] [µg/mL] | oral absorption rate (%) [3] [%] | further results
1 | Nc1ccc(-c2nc(F)c([C@@H]3CCc4cc(-c5cc(Cl)ccc5-n5cnnn5)cc(=O)n43)[nH]2)c(F)n1 [Example 1(11), (3S)-3-[2-(6-amino-2-fluoro-3-pyridinyl)-4-fluoro-1H-imidazol-5-yl]-7-[5-chloro-2-(1H-tetrazol-1-yl)phenyl]-2,3-dihydro-5(1H)-indolizinone dihydrate] | high hygroscopicity | – | – | – | – | solubility at 24 h ([2]; JP 1st fluid, simulated gastric fluid, JP 1st fluid, 700 rpm, read-out: Solubility, JP 1st fluid): 41 µg/mL; solubility at 24 h ([2]; JP 1st fluid, simulated gastric fluid, JP 1st fluid, read-out: solubility in the JP 1st fluid): 41 µg/mL; solubility at 24 h ([2]; artificial intestinal juice (FaSSIF), fassif, artificial intestinal juice (FaSSIF), 700 rpm, read-out: Solubility, Artificial intestinal juice): 47 µg/mL; solubility at 24 h ([2]; artificial intestinal juice (FaSSIF), fassif, artificial intestinal juice (FaSSIF), read-out: solubility in the artificial intestinal juice): 47 µg/mL; oral absorption rate (%) ([3]; dihydrate): 26%; oral absorption (in words) ([3]; monkeys, oral): poor oral absorption
2 | Nc1ccc(-c2nc(F)c([C@@H]3CCc4cc(-c5cc(Cl)ccc5-n5cnnn5)cc(=O)n43)[nH]2)c(F)n1 [Example 5, (3S)-3-[2-(6-Amino-2-fluoropyridin-3-yl)-4-fluoro-1H-imidazol-5-yl]-7-[5-chloro-2-(1H-tetrazol-1-yl)phenyl]-2,3-dihydroindolizin-5(1H)-one-3-hydroxybenzoic acid (1/1)] | – | 75 | 60 | 60 (≈ 118 µM) | ~100 | weight change rate ([1]; DVS, 25° C., relative humidity of 0 to 95%): less than 1%; solubility in the JP 1st fluid ([2]; JP 1st fluid, 37° C.): 75 µg/mL (≈ 148 µM)
3 | (3S)-3-[2-(6-Amino-2-fluoropyridin-3-yl)-4-fluoro-1H-imidazol-5-yl]-7-[5-chloro-2-(1H-tetrazol-1-yl)phenyl]-2,3-dihydroindolizin-5(1H)-one-3-hydroxybenzoic acid (1/1) [Example 5] | low hygroscopicity | – | – | – | – | –
4 | (3S)-3-[2-(6-Amino-2-fluoropyridin-3-yl)-4-fluoro-1H-imidazol-5-yl]-7-[5-chloro-2-(1H-tetrazol-1-yl)phenyl]-2,3-dihydroindolizin-5(1H)-one-nicotinamide (2/1) [Example 4] | – | 77 | 60 | 60 | 44 | –
